Target: T1, human vasopressin V1a receptor subtype (Homo sapiens, UniProt P37288)
T1 construct: host or cells: CHO cells, stably transfected (pZeoSV vector for the Thibonnier line); membranes
Experiment: Vasopressin binding in CHO cell membranes expressing human vasopressin V1a subtype receptors ([3H]Manning ligand)
Conditions: value in parentheses
Description: Vasopressin Binding in Chinese Hamster Ovary Cell Membranes Expressing Human Vasopressin V1a Subtype Receptors
Chinese hamster ovary cells (CHO cells) stably transfected with the human vasopressin V1a subtype receptors were either obtained from Biosignal Inc., 1744 rue Williams, Montreal, Quebec, Canada or obtained from M. Thibonnier, Case Western Reserve University School of Medicine, Cleveland, Ohio.
A. Passaging and Amplification of Cells:
CHO cells transfected with the human vasopressin V1a subtype receptors obtained from M. Thibonnier (pZeoSV vector) are allowed to grow to confluency (approx. >90%) in T-150 flasks under sterile conditions, in a cell culture medium of F-12 Nutrient Mixture (HAM) with L-glutamine (Gibco Cat. #11765-054) containing 15 mM HEPES (Gibco Cat. #15630-080), 1% antibiotic/antimycotic (add 5 mL 100×, Gibco Cat. #15240-062 per 500 mL F-12), 250 μg/mL Zeocin (add 1.25 mL of 100 mg/mL Invitrogen R-250-01 per 500 mL F-12) and 10% Fetal Bovine Serum (Qualified, heat inactivated, Gibco Cat. #16140-063). The medium is removed by aspiration and the cells are washed with 10 mL of Hank's Balanced Salt solution (Gibco Cat. #14175-095). The salt solution is removed by aspiration and the cells are trypsinized with 5 mL of trypsin-EDTA (0.05% trypsin, 0.53 mM EDTA-4Na, Gibco Cat. #25300-070) for 1 min. The trypsin is removed by aspiration and the cells dislodged by tapping. Cell Culture medium (eg, 30 mL for 1:30 split) is immediately added and mixed well to inactivate trypsin. 1 mL of detached cells is added to new culture flasks containing fresh cell culture medium (eg, into 25 mL per T-150 flask), and mixed gently. The cells are incubated at 37° C. in 5% CO2. The medium is changed at 3 to 4 days interval (or as appropriate). The cells grow to confluency (approx. >75%-95%) within 7-8 days. All steps are done under sterile conditions.
The cells are washed twice gently with Hank's Balanced Salt solution (e.g,. use 10 mL per T-150 flask). The excess is removed and the cells are bathed for 15-30 min. in an enzyme-free Cell Dissociation Buffer (e.g. use 8 mL Hank's Based, Gibco Cat. #13150-016 per T-150 flask) until the cells are loosened. The contents are transferred to centrifuge tubes (50 mL size) kept in ice bath. All subsequent steps are done at 4° C. The tubes are centrifuged at 300×g for 15 min (1380 rpm on SORVAL, Model RT6000D, using rotor for 50 mL tubes). The supernatant is discarded and the cells suspended in homogeneizing buffer(10 mM Tris-HCl containing 0.25 M sucrose and 1 mM EDTA, pH 7.4) ensuring that the volume of the buffer is about ten times the volume of the cell pellet. The cells are pooled into a centrifuge tube (50 mL) and homogenized with Polytron at setting 6 for 10 sec. The homogenate is transferred into a Potter-Elvjehm homogenizer and homogenized with 3 strokes. The homogenate is centrifuged at 1500×g for 10 min at 4° C. (3100 rpm using SORVAL, model RT6000D, using rotor for 50 mL tubes). The pellet is discarded. The supernatant is centrifuged at 100,000×g for 60 min. at 4° C. (Beckman L8-80M ultracentrifuge; spin at 37,500 rpm with rotor type 70 Ti for 50 mL tubes; 38,000 rpm with type 80Ti for 15 mL tubes; or 35,800 rpm with rotor type 45Ti). The supemantant is discarded and the pellet suspended in 3 to 4 mL of Tris buffer (50 mM TRIS-HCl, pH 7.4). The protein content is estimated by the Bradford or Lowry method. The volume of the membrane suspension is adjusted with the membrane buffer (50 mM Tris-HCl containing 0.1% BSA and 0.1 mM PMSF) to give 3.0 mg/mL (or as appropriate) of protein. The membranes are aliquoted and stored at −70° C.
C. Radioligand Binding Assay: […]

T1 sequence (P37288 whole entry): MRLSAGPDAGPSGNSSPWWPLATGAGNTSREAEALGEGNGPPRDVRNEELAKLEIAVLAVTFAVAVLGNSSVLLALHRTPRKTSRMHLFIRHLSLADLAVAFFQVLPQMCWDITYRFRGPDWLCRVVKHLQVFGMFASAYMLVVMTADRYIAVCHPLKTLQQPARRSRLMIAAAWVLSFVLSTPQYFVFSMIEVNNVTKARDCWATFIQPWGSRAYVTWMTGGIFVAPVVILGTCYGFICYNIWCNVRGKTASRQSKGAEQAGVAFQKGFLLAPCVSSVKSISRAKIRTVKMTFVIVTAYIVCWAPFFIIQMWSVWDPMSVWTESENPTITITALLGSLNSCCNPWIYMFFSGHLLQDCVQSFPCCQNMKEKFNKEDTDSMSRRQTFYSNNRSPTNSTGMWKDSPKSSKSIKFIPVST

IC50: 2190 nM
Structure (SMILES): COC[C@@H](OC)[C@@H](OC)[C@H](OC)[C@H](CN(C)C(=O)c1ccc2n1Cc1ccccc1N(C(=O)c1cc(Cl)c(C3=CCCCC3)cc1OC)C2)OC [Example 2, 10-(5-Chloro-4-cyclohex-1-en-1-yl-2-methoxybenzoyl)-N-methyl-N-[(2S,3R,4R,5R)-2,3,4,5,6-pentamethoxyhexyl]-10,11-dihydro-5H-pyrrolo[2,1-c][1,4]benzodiazepine-3-carboxamide]

From patent US6977254B2, “Hydroxy cyclohexenyl phenyl carboxamides tocolytic oxytocin receptor antagonists” (Wyeth, priority 2001, dated 2005)
